{"source": "ChEMBL document CHEMBL1144794", "about": "“Synthesis of 4'-modified noraristeromycins to clarify the effect of the 4'-hydroxyl groups for inhibitory activity against S-adenosyl-L-homocysteine hydrolase” (Bioorg Med Chem Lett, 2008)", "key": {"Adenosylhomocysteinase [1]": {"biological_target": "T1, Adenosylhomocysteinase (Homo sapiens, UniProt P23526)", "assay": "Inhibition of human recombinant SAHH at 1000 uM"}, "Plasmodium falciparum": {"tested_on": "Plasmodium falciparum", "assay": "(§1) Inhibition of Plasmodium falciparum recombinant SAHH at 1000 uM"}, "Adenosylhomocysteinase [2]": {"biological_target": "T1, Adenosylhomocysteinase", "assay": "Inhibition of human recombinant SAHH"}, "[3]": {"assay": "Inhibition of Plasmodium falciparum recombinant SAHH"}, "[4]": {"assay": "as §1"}}, "note": "Calls of active or inactive are those of the source. The rule behind the calls is not given here.", "data": [{"compound": "Nc1ncnc2c1ncn2[C@@H]1C[C@@H](OS(N)(=O)=O)[C@@H](O)[C@H]1O", "values": [{"measurement": "Activity", "setting": "Adenosylhomocysteinase [1]", "value": "inactive"}, {"measurement": "Activity", "setting": "Plasmodium falciparum", "value": "inactive"}]}, {"compound": "Nc1ncnc2c1ncn2[C@@H]1C[C@@H](O)[C@@H](O)[C@H]1O", "values": [{"measurement": "IC50", "setting": "Adenosylhomocysteinase [2]", "value": 7.6, "unit": "µM"}, {"measurement": "IC50", "setting": "[3]", "value": 79, "unit": "µM"}]}, {"compound": "Nc1ncnc2c1ncn2[C@@H]1C[C@H](N)[C@@H](O)[C@H]1O", "values": [{"measurement": "IC50", "setting": "Adenosylhomocysteinase [2]", "value": 76, "unit": "µM"}, {"measurement": "IC50", "setting": "[3]", "value": 126, "unit": "µM"}]}, {"compound": "Nc1ncnc2c1ncn2[C@@H]1C[C@@H](N)[C@@H](O)[C@H]1O", "values": [{"measurement": "IC50", "setting": "Adenosylhomocysteinase [2]", "value": "> 500", "unit": "µM"}, {"measurement": "IC50", "setting": "[3]", "value": "> 500", "unit": "µM"}]}, {"compound": "Nc1nc(N)c2ncn([C@@H]3C[C@H](OS(=O)(=O)O)[C@@H](O)[C@H]3O)c2n1", "values": [{"measurement": "Activity", "setting": "Adenosylhomocysteinase [1]", "value": "inactive"}, {"measurement": "Activity", "setting": "Plasmodium falciparum", "value": "inactive"}]}, {"compound": "[N-]=[N+]=N[C@H]1C[C@@H](n2cnc3c(N)ncnc32)[C@H](O)[C@@H]1O", "values": [{"measurement": "IC50", "setting": "Adenosylhomocysteinase [2]", "value": 123, "unit": "µM"}, {"measurement": "IC50", "setting": "[3]", "value": 117, "unit": "µM"}]}, {"compound": "Nc1ncnc2c1ncn2[C@@H]1C[C@H](O)[C@@H](O)[C@H]1O", "note": "[NORARISTEROMYCIN]", "values": [{"measurement": "IC50", "setting": "Adenosylhomocysteinase [2]", "value": 3.1, "unit": "µM"}, {"measurement": "IC50", "setting": "[3]", "value": 1.1, "unit": "µM"}]}, {"compound": "Nc1nc(N)c2ncn([C@@H]3C[C@H](OS(N)(=O)=O)[C@@H](O)[C@H]3O)c2n1", "values": [{"measurement": "Activity", "setting": "Adenosylhomocysteinase [1]", "value": "inactive"}, {"measurement": "Activity", "setting": "Plasmodium falciparum", "value": "inactive"}]}, {"compound": "Nc1nc(N)c2ncn([C@@H]3C[C@@H](OS(N)(=O)=O)[C@@H](O)[C@H]3O)c2n1", "values": [{"measurement": "Activity", "setting": "Adenosylhomocysteinase [1]", "value": "inactive"}, {"measurement": "Activity", "setting": "Plasmodium falciparum", "value": "inactive"}]}, {"compound": "Nc1nc(N)c2ncn([C@@H]3C[C@@H](OS(=O)(=O)O)[C@@H](O)[C@H]3O)c2n1", "values": [{"measurement": "Activity", "setting": "Adenosylhomocysteinase [1]", "value": "inactive"}, {"measurement": "Activity", "setting": "Plasmodium falciparum", "value": "inactive"}]}, {"compound": "Nc1ncnc2c1ncn2[C@@H]1C[C@H](F)[C@@H](O)[C@H]1O", "values": [{"measurement": "Activity", "setting": "Adenosylhomocysteinase [1]", "value": "inactive"}, {"measurement": "IC50", "setting": "[3]", "value": 200, "unit": "µM"}]}, {"compound": "[N-]=[N+]=N[C@@H]1C[C@@H](n2cnc3c(N)ncnc32)[C@H](O)[C@@H]1O", "values": [{"measurement": "IC50", "setting": "Adenosylhomocysteinase [2]", "value": 163, "unit": "µM"}, {"measurement": "IC50", "setting": "[3]", "value": 90, "unit": "µM"}]}, {"compound": "Nc1nc(F)nc2c1ncn2[C@@H]1C[C@H](O)[C@@H](O)[C@H]1O", "values": [{"measurement": "IC50", "setting": "Adenosylhomocysteinase [2]", "value": 13, "unit": "µM"}, {"measurement": "IC50", "setting": "[3]", "value": 63, "unit": "µM"}]}, {"compound": "Nc1ncnc2c1ncn2[C@@H]1C[C@H](OS(=O)(=O)O)[C@@H](O)[C@H]1O", "values": [{"measurement": "Activity", "setting": "Adenosylhomocysteinase [1]", "value": "inactive"}, {"measurement": "Activity", "setting": "Plasmodium falciparum", "value": "inactive"}]}, {"compound": "Nc1ncnc2c1ncn2[C@@H]1CC[C@@H](O)[C@H]1O", "values": [{"measurement": "IC50", "setting": "[4]", "value": 9, "unit": "µM"}]}, {"compound": "Nc1ncnc2c1ncn2[C@@H]1C[C@@H](OS(=O)(=O)O)[C@@H](O)[C@H]1O", "values": [{"measurement": "Activity", "setting": "Adenosylhomocysteinase [1]", "value": "inactive"}, {"measurement": "Activity", "setting": "Plasmodium falciparum", "value": "inactive"}]}, {"compound": "Nc1ncnc2c1ncn2[C@@H]1C[C@H](OS(N)(=O)=O)[C@@H](O)[C@H]1O", "values": [{"measurement": "Activity", "setting": "Adenosylhomocysteinase [1]", "value": "inactive"}, {"measurement": "Activity", "setting": "Plasmodium falciparum", "value": "inactive"}]}, {"compound": "Nc1ncnc2c1ncn2[C@@H]1C[C@@H](F)[C@@H](O)[C@H]1O", "values": [{"measurement": "Activity", "setting": "Adenosylhomocysteinase [1]", "value": "inactive"}, {"measurement": "Activity", "setting": "Plasmodium falciparum", "value": "inactive"}]}]}
